Results as given in patent publication US20170189504A1, “NOVEL PEPTIDES AND COMBINATION OF PEPTIDES FOR USE IN IMMUNOTHERAPY AGAINST VARIOUS CANCERS” (immatics biotechnologies GmbH, priority 2015, published 2017).

These substances were tested on HLA-A*02 (assay: MHC binding assay, UV-ligand exchange with β2m ELISA, HLA-A*02 (Table 20)). Conditions: binding to HLA-A*02 ranged by peptide exchange yield (UV-ligand exchange, β2m ELISA).
Design: species or system human
Text: Candidate peptides for T cell based therapies according to the present invention were further tested for their MHC binding capacity (affinity). The individual peptide-MHC complexes were produced by UV-ligand exchange, where a UV-sensitive peptide is cleaved upon UV-irradiation, and exchanged with the peptide of interest as analyzed. Only peptide candidates that can effectively bind and stabilize the peptide-receptive MHC molecules prevent dissociation of the MHC complexes. To determine the yield of the exchange reaction, an ELISA was performed based on the detection of the light chain ((β2m) of stabilized MHC complexes. The assay was performed as generally described in Rodenko et al. (Rodenko et al., 2006).
96 well MAXISorp plates (NUNC) were coated over night with 2 ug/ml streptavidin in PBS at room temperature, washed 4× and blocked for 1 h at 37° C. in 2% BSA containing blocking buffer. Refolded HLA-A*02:01/MLA-001 monomers served as standards, covering the range of 15-500 ng/ml. Peptide-MHC monomers of the UV-exchange reaction were diluted 100 fold in blocking buffer. Samples were incubated for 1 h at 37° C., washed four times, incubated with 2 ug/ml HRP conjugated anti-β2m for 1 h at 37° C., washed again and detected with TMB solution that is stopped with […]. Absorption was measured at 450 nm. Candidate peptides that show a high exchange yield (preferably higher than 50%, most preferred higher than 75%) are generally preferred for a generation and production of antibodies or fragments thereof, and/or T cell receptors or fragments thereof, as they show sufficient avidity to the MHC molecules and prevent dissociation of the MHC complexes.

Row | Substance | Peptide exchange
1 | 135 (HLSTIIHEA; listed as Homo sapiens) [compound 135] | +++ (50%-75% = +++)
2 | 83 (GQASYFYVA; listed as Homo sapiens) [compound 83] | ++ (20%-49% = ++)
3 | 40 (VLIDPQWVLTA; listed as Homo sapiens) [compound 40] | +++ (50%-75% = +++)
4 | 111 (AIVDLIHDI; listed as Homo sapiens) [compound 111] | ++ (20%-49% = ++)
5 | 244 (YLLEKNRVV; listed as Homo sapiens) [compound 244] | ++ (20%-49% = ++)
6 | 49 (ALNIATHVL; listed as Homo sapiens) [compound 49] | +++ (50%-75% = +++)
7 | 240 (YMGEEKLIASV; listed as Homo sapiens) [compound 240] | +++ (50%-75% = +++)
8 | 128 (TQSPATLSV; listed as Homo sapiens) [compound 128] | ++ (20%-49% = ++)
9 | 105 (ALLGTKILL; listed as Homo sapiens) [compound 105] | +++ (50%-75% = +++)
10 | 45 (SLTEVSLPL; listed as Homo sapiens) [compound 45] | +++ (50%-75% = +++)
11 | 250 (SLAPATPEV; listed as Homo sapiens) [compound 250] | +++ (50%-75% = +++)
12 | 156 (ILGDLSHLL; listed as Homo sapiens) [compound 156] | +++ (50%-75% = +++)
13 | 266 (YAIGLVMRL; listed as Homo sapiens) [compound 266] | +++ (50%-75% = +++)
14 | 124 (KVMATIEKV; listed as Homo sapiens) [compound 124] | ++ (20%-49% = ++)
15 | 257 (GLYTDPCGV; listed as Homo sapiens) [compound 257] | ++++ (≧75% = ++++)
16 | 134 (GLAVPTPSV; listed as Homo sapiens) [compound 134] | +++ (50%-75% = +++)
17 | 48 (QVIEDSTGV; listed as Homo sapiens) [compound 48] | ++ (20%-49% = ++)
18 | 243 (FMADDIFSV; listed as Homo sapiens) [compound 243] | +++ (50%-75% = +++)
19 | 143 (ALLPELREV; listed as Homo sapiens) [compound 143] | +++ (50%-75% = +++)
20 | 86 (SVDSHFQEV; listed as Homo sapiens) [compound 86] | ++ (20%-49% = ++)
21 | 95 (GLLGSLFFL; listed as Homo sapiens) [compound 95] | ++++ (≧75% = ++++)
22 | 246 (TVSDVLNSV; listed as Homo sapiens) [compound 246] | +++ (50%-75% = +++)
23 | 41 (ALFENTPKA; listed as Homo sapiens) [compound 41] | ++ (20%-49% = ++)
24 | 127 (KLDGNELDL; listed as Homo sapiens) [compound 127] | +++ (50%-75% = +++)
25 | 70 (LLLGDSALYL; listed as Homo sapiens) [compound 70] | +++ (50%-75% = +++)

Row | Substance | Peptide exchange
26 | 254 (KLQGKLPEL; listed as Homo sapiens) [compound 254] | ++ (20%-49% = ++)
27 | 155 (LLNPVVEFV; listed as Homo sapiens) [compound 155] | +++ (50%-75% = +++)
28 | 61 (AIVKEIVNI; listed as Homo sapiens) [compound 61] | ++ (20%-49% = ++)
29 | 77 (TLIDEQDIPLV; listed as Homo sapiens) [compound 77] | +++ (50%-75% = +++)
30 | 104 (ALISWQPPRA; listed as Homo sapiens) [compound 104] | +++ (50%-75% = +++)
31 | 36 (SLADTNSLAVV; listed as Homo sapiens) [compound 36] | +++ (50%-75% = +++)
32 | 126 (QMFQYFITV; listed as Homo sapiens) [compound 126] | ++++ (≧75% = ++++)
33 | 103 (YLVSEIFKA; listed as Homo sapiens) [compound 103] | +++ (50%-75% = +++)
34 | 34 (FLLATEVVTV; listed as Homo sapiens) [compound 34] | ++++ (≧75% = ++++)
35 | 74 (TLFGYSVVL; listed as Homo sapiens) [compound 74] | +++ (50%-75% = +++)
36 | 154 (RLLGTEFQV; listed as Homo sapiens) [compound 154] | +++ (50%-75% = +++)
37 | 152 (MMVGDLLEV; listed as Homo sapiens) [compound 152] | +++ (50%-75% = +++)
38 | 101 (ALADFMLSL; listed as Homo sapiens) [compound 101] | +++ (50%-75% = +++)
39 | 73 (YTLREVDTV; listed as Homo sapiens) [compound 73] | ++ (20%-49% = ++)
40 | 262 (FMVDKAIYL; listed as Homo sapiens) [compound 262] | +++ (50%-75% = +++)
41 | 22 (FVDPNTQEKV; listed as Homo sapiens) [compound 22] | ++ (20%-49% = ++)
42 | 146 (ALHFSEDEI; listed as Homo sapiens) [compound 146] | ++ (20%-49% = ++)
43 | 71 (VLHSKFWVV; listed as Homo sapiens) [compound 71] | +++ (50%-75% = +++)
44 | 72 (FLTAINYLL; listed as Homo sapiens) [compound 72] | +++ (50%-75% = +++)
45 | 54 (VLNPLITAV; listed as Homo sapiens) [compound 54] | +++ (50%-75% = +++)
46 | 136 (FLFGGVLMTL; listed as Homo sapiens) [compound 136] | ++ (20%-49% = ++)
47 | 153 (FISERVEVV; listed as Homo sapiens) [compound 153] | ++++ (≧75% = ++++)
48 | 113 (FLERGLESA; listed as Homo sapiens) [compound 113] | ++ (20%-49% = ++)
49 | 9 (FLVDGSYSI; listed as Homo sapiens) [compound 9] | +++ (50%-75% = +++)
50 | 132 (ILGEVLAQL; listed as Homo sapiens) [compound 132] | +++ (50%-75% = +++)

Row | Substance | Peptide exchange
51 | 237 (ALAPHLDDA; listed as Homo sapiens) [compound 237] | +++ (50%-75% = +++)
52 | 32 (VQLDSIEDLEV; listed as Homo sapiens) [compound 32] | +++ (50%-75% = +++)
53 | 25 (TMDSVLVTV; listed as Homo sapiens) [compound 25] | +++ (50%-75% = +++)
54 | 51 (LLFSRLCGA; listed as Homo sapiens) [compound 51] | ++++ (≧75% = ++++)
55 | 33 (YIKTELISV; listed as Homo sapiens) [compound 33] | +++ (50%-75% = +++)
56 | 264 (KLFPQETLFL; listed as Homo sapiens) [compound 264] | +++ (50%-75% = +++)
57 | 260 (ILLEKILSL; listed as Homo sapiens) [compound 260] | +++ (50%-75% = +++)
58 | 145 (YLWATIQRI; listed as Homo sapiens) [compound 145] | +++ (50%-75% = +++)
59 | 236 (STIAILNSV; listed as Homo sapiens) [compound 236] | +++ (50%-75% = +++)
60 | 259 (ILLPRIIEA; listed as Homo sapiens) [compound 259] | +++ (50%-75% = +++)
61 | 56 (FLHDEKEGIYI; listed as Homo sapiens) [compound 56] | +++ (50%-75% = +++)
62 | 62 (ALNPELVQA; listed as Homo sapiens) [compound 62] | ++ (20%-49% = ++)
63 | 69 (FLAVGLVDV; listed as Homo sapiens) [compound 69] | +++ (50%-75% = +++)
64 | 67 (TLLQRLTEV; listed as Homo sapiens) [compound 67] | +++ (50%-75% = +++)
65 | 121 (FTIFRTISV; listed as Homo sapiens) [compound 121] | +++ (50%-75% = +++)
66 | 19 (SISDNVWEV; listed as Homo sapiens) [compound 19] | +++ (50%-75% = +++)
67 | 129 (RLQDILWFL; listed as Homo sapiens) [compound 129] | ++++ (≧75% = ++++)
68 | 82 (FIFDEAEKL; listed as Homo sapiens) [compound 82] | + (<20% = +)
69 | 133 (ALLPRLHQL; listed as Homo sapiens) [compound 133] | ++++ (≧75% = ++++)
70 | 55 (SLATKIVEA; listed as Homo sapiens) [compound 55] | +++ (50%-75% = +++)
71 | 80 (KLYEADFVL; listed as Homo sapiens) [compound 80] | ++ (20%-49% = ++)
72 | 118 (QLWQFLVTL; listed as Homo sapiens) [compound 118] | +++ (50%-75% = +++)
73 | 263 (VLLSEQGDVKL; listed as Homo sapiens) [compound 263] | ++ (20%-49% = ++)
